Measured values reported in patent US5935824A, “Protein expression system” (Technologene, Inc., priority 1996, dated 1999).
Residues, ends and D or L forms follow the SMILES beside them. *: point of attachment. Cbz = O=C(OCc1ccccc1)*

Biological target: T1, carboxypeptidase Y (CPD-Y) immobilized to Acti-Disk (Saccharomyces cerevisiae, UniProt P00729)
T1 construct: purchased Sigma
T1 sequence (P00729 112-532): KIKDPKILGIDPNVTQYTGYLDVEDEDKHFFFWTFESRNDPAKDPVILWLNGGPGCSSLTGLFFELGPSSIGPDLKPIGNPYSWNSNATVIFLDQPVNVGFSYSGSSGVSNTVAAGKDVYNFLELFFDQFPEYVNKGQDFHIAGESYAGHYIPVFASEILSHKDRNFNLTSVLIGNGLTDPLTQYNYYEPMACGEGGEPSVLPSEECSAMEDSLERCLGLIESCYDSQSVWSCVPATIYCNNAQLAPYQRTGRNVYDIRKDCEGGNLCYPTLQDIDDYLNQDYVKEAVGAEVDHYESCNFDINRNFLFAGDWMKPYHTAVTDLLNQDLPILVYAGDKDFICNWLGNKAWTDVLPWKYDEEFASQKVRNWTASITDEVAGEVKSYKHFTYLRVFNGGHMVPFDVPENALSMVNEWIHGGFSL
Assay: Flow digestion of N-CBZ-peptides through CPD-Y Acti Disk, ninhydrin assays
Assay type: biochemical, yeast
Description: The reported Km values for CPD-Y have been generated using extremely low enzyme concentration compared to substrate concentration. The value for Km represents the concentration of substrate that will produce 1/2 the maximum velocity for the initial reaction rates. During the testing of the immobilized CPD-Y enzyme disks with various dipeptide substrates, the maximum flow rate that can be achieved without any substantial increase in the pressure of the solution, is 4 ml/min. At this flow rate, the substrate remains within the immobilized enzyme matrix for 1.74 seconds. This value is determined by dividing the internal porous volume of the matrix to which the enzyme is immobilized (115 μL/4000 μL, min^-1). Due to the high concentration of enzyme (565 μM) within the limited volume of the immobilization matrix (115 μl) a very high percentage of the substrate was hydrolyzed even at these short incubation times which prevents the accurate determination of actual Km values for the individual substrates.
Standard ninhydrin assay: Hydrolysis of the non-proline containing N-CBZ-dipeptides was determined by assaying the amount of free amino acid released by a colorometric ninhydrin reaction at a pH greater than 5.2. One gram of ninhydrin was dissolved in 50 ml ethylene glycol monomethyl ether containing 0.03% ascorbic acid. This ninhydrin solution was made fresh daily. A 0.4 M Citrate buffer, pH 5.2 was made by adjusting the pH of ACS grade citric acid with NaOH. Two hundred microliter samples at pH greater than 5.2 were mixed with an equal volume of ninhydrin reagent and incubated at 100° C. for 20 minutes. When 200 μl samples below pH 5.2 were to be assayed, 100 μl of 0.4 M Citrate buffer was included prior to heating the sample to 100° C. Samples were then cooled to room temperature and 600 μl of 60% ethanol was added as the diluent and the absorbance was read at 570 nm on a Beckman DU 7000 spectrophotometer.
Proline ninhydrin assay: Hydrolysis of proline-containing N-CBZ-dipeptides were measured with a modified version of the assay described by Magne and Larher [Anal. Biochem., 200:115 (1982)]. Briefly a ninhydrin reagent containing 2% ninhydrin prepared in glacial acetic acid:water 60:40 (v/v) was prepared. Five hundred microliter samples were combined with 500 μl glacial acetic acid and 500 μl ninhydrin reagent was added. The sample was subsequently boiled for one hour. One milliliter of analytical grade toluene was then used to extract the chromophore and the absorbance was read at 520 nm.
Concentrations of N-CBZ-Ala-Pro ranging from 4 mM to 100 μM (100 mM citrate, 100 mM NaCl, pH 5.75) were passed through a CPD-Y Acti Disk at a flow rate of 2.0 ml/min. Reaction rates were determined by assaying the appropriate dilutions of the various substrates using the above described proline ninhydrin assay specific of free proline to obtain […] readings below 1.5.
N-CBZ-Ala-Pro (dissolved in 100 mM citrate, 100 mM NaCl, pH 5.75) at a concentration of 200 μM, was passed through the same CPD-Y Acti Disk at flow rates ranging from 2 ml/min to 175 μl/ min. Five milliliters of each specific flow rate were collected and assayed by the proline ninhydrin assay in order to determine the relative percentage of substrate that was hydrolyzed using the various flow rates. In order to characterize the amount of substrate hydrolyzed per unit of time, flow rates are converted to amount of time that the substrate is within the immobilized enzyme matrix (Acti Disk). The amount of time the substrate is within the immobilized enzyme matrix at a given flow rate is shown below in Table 6.
The first order rate constant determined for the N-CBZ-Ala-Pro substrate is applicable only as a reference for comparison to other N-CBZ-dipeptide first order rate constants. N-CBZ-Phe-Ala is the substrate used by Sigma to characterize the activity of CPD-Y at 100 units per milligram, 1 unit can hydrolyze 1 μmol of N-CBZ-Phe-Ala per minute. […]

[1] = flow rate 2 ml/min, 3.45 seconds, pH 5.75, ~25° C.
[2] = 200 μM substrate, varied flow rates
[3] = 200 μM substrate, 2 × 2 ml/min (two passes)
[4] = 200 μM substrate, flow rate 0.25 ml/min, one pass
[5] = 200 μM substrate, flow rate 1.0 ml/min, one pass
[6] = 200 μM substrate, flow rate 2.0 ml/min, one pass
[7] = second flow at 2.0 ml/min, 3.45 seconds

CC(C)C[C@H](NC(=O)[C@H](C)NC(=O)OCc1ccccc1)C(=O)O [N-CBZ-Ala-Leu] (Cbz-Ala-Leu-OH)
K^1 min^-1 (first order reaction constant) [1]: 27.52 min⁻¹
Log S/S-P [1]: 0.688

C[C@H](NC(=O)OCc1ccccc1)C(=O)N1CCC[C@H]1C(=O)O [N-CBZ-Ala-Pro] (Cbz-Ala-Pro-OH)
First-order rate constant (200 μM substrate, converted from seconds^-1): 3.84 min⁻¹
Log S/S-P (200 μM substrate, flow rate 175 μl/min, 36.4 seconds): 1.541
Log S/S-P (200 μM substrate, flow rate 350 μl/min, 19.7 seconds): 1.022
Log S/S-P (200 μM substrate, flow rate 1000 μl/min, 6.90 seconds): .672
Log S/S-P (200 μM substrate, flow rate 2000 ml/min (so in the source), 3.45 seconds): .560
First-order rate constant [2]: 4.14 min⁻¹
Slope of log [S]/[S]-[P] over seconds [2]: 0.030
Log S/S-P (500 μM substrate, 1 pass at 2000 μl/min, 3.45 sec): .614
Log S/S-P (500 μM substrate, 2 passes at 2000 μl/min, 6.90 sec): 1.236
Log S/S-P (500 μM substrate, 3 passes at 2000 μl/min, 10.35 sec): 1.870
Slope of log [S]/[S]-[P] versus seconds (500 μM substrate, repeated passes at 2000 μl/min): 0.199
K^1 min^-1 (first order reaction constant) [1]: 22.40 min⁻¹
Log S/S-P [1]: 0.560
Velocity (substrate concentration 100 μM, flow rate 2.0 ml/min, pH 5.75): 170 nM/min
Velocity (substrate concentration 200 μM, flow rate 2.0 ml/min, pH 5.75): 344 nM/min
Velocity (substrate concentration 300 μM, flow rate 2.0 ml/min, pH 5.75): 503 nM/min
Velocity (substrate concentration 500 μM, flow rate 2.0 ml/min, pH 5.75): 846 nM/min
Velocity (substrate concentration 1000 μM, flow rate 2.0 ml/min, pH 5.75): 1684 nM/min

O=C(O)CC[C@H](NC(=O)OCc1ccccc1)C(=O)N[C@@H](Cc1ccc(O)cc1)C(=O)O [N-CBZ-Glu-Tyr] (Cbz-Glu-Tyr-OH)
K^1 min^-1 (first order reaction constant) [1]: 24.24 min⁻¹
Log S/S-P [1]: 0.606

CC(C)C[C@H](NC(=O)[C@@H]1CCCN1C(=O)CNC(=O)OCc1ccccc1)C(=O)N[C@@H](C)C(=O)N1CCC[C@H]1C(=O)O [N-CBZ-Gly-Pro-Leu-Ala-Pro] (Cbz-GPLAP-OH)
Concentration of amino acids released, standard ninhydrin assay [3]: 353.4 µM
Concentration of proline released, proline ninhydrin assay [3]: 195.6 µM
Concentration of amino acids released, standard ninhydrin assay [4]: 384.0 µM
Concentration of proline released, proline ninhydrin assay [4]: 212.5 µM
Concentration of amino acids released, standard ninhydrin assay [5]: 315.9 µM
Concentration of proline released, proline ninhydrin assay [5]: 196.5 µM
Concentration of amino acids released, standard ninhydrin assay [6]: 265.7 µM
Concentration of proline released, proline ninhydrin assay [6]: 197.0 µM
Kinetic constant k for the remaining Pro-Leu bond [7]: 18.39
Product released in second flow [7]: 87.7 µM

O=C(NCC(=O)N1CCC[C@H]1C(=O)O)OCc1ccccc1 [N-CBZ-Gly-Pro] (Cbz-Gly-Pro-OH)
K^1 min^-1 (first order reaction constant) [1]: 0.160 min⁻¹
Log S/S-P [1]: 0.004

C[C@H](NC(=O)[C@H](Cc1ccccc1)NC(=O)OCc1ccccc1)C(=O)O [N-CBZ-Phe-Ala]
Concentration of released alanine (20 mM substrate, flow rate 4 ml/minute): 10.49 mM
Rate of digestion (20 mM substrate, flow rate 4 ml/minute, pH 5.75): 41.96 µmol/min

O=C(O)[C@H](Cc1ccccc1)NC(=O)[C@@H]1CCCN1C(=O)OCc1ccccc1 [N-CBZ-Pro-Phe] (Cbz-Pro-Phe-OH)
K^1 min^-1 (first order reaction constant) [1]: 1.480 min⁻¹
Log S/S-P [1]: 0.037
